Measured values as given in ChEMBL document CHEMBL3885861, “Open TG-GATES”.

Species on record: Rattus norvegicus
Assay: Open TG-GATES - Regimen: Daily Repeat
Type: toxicity, organism-based, Sprague-Dawley
Parameters: regimen Daily Repeat, gender Male, age 6 weeks
Conditions: in vivo, po, 15 mg/kg, route gavage, dose level Low; for APTT / Bas / Eos / Fbg / Hb / Ht / Lym / MCHC / MCV / Mono / Neu / PT / Plat / RBC / Ret / WBC: tissue Blood; for KIDNEY_L / KIDNEY_R / KIDNEY_TOTAL: tissue Kidney; for LIVER: tissue Liver; for ALP / ALT / AST / BUN / CRE / Ca / Cl / DBIL / GLC / IP / K / LDH / Na / PL / RALB / TBIL / TC / TG / TP / gamma-GTP: tissue Plasma

C1CCC(C(CC2CCCCN2)C2CCCCC2)CC1 (centres undefined) [PERHEXILINE]
TERMINAL_BW (72 h, time 3 day): 221.1 g | APTT (72 h, time 3 day): 22 s | Bas (72 h, time 3 day): 0% | Eos (72 h, time 3 day): 0.8% | Fbg (72 h, time 3 day): 313.4 mg/dL | Hb (72 h, time 3 day): 13.4 g/dL | Ht (72 h, time 3 day): 39.5% | Lym (72 h, time 3 day): 82.4% | MCHC (72 h, time 3 day): 33.7% | MCV (72 h, time 3 day): 62.1 fL | Mono (72 h, time 3 day): 1.6% | Neu (72 h, time 3 day): 14.2% | PT (72 h, time 3 day): 16.6 s | Plat (72 h, time 3 day): 127.5 x10_4/uL | RBC (72 h, time 3 day): 637.8 x10_4/ul | Ret (72 h, time 3 day): 5.8% | WBC (72 h, time 3 day): 90.6 x10_2/uL | KIDNEY_L (72 h, time 3 day): 1 g | KIDNEY_R (72 h, time 3 day): 1 g | KIDNEY_TOTAL (72 h, time 3 day): 2 g | LIVER (72 h, time 3 day): 10.6 g | ALP (72 h, time 3 day): 1691.8 IU/L | ALT (72 h, time 3 day): 40.6 IU/L | AST (72 h, time 3 day): 69.8 IU/L | BUN (72 h, time 3 day): 16.2 mg/dL | CRE (72 h, time 3 day): 0.2 mg/dL | Ca (72 h, time 3 day): 10.8 mg/dL | Cl (72 h, time 3 day): 106.4 meq/L | DBIL (72 h, time 3 day): 0 mg/dL | GLC (72 h, time 3 day): 186.2 mg/dL | IP (72 h, time 3 day): 6.6 mg/dL | K (72 h, time 3 day): 4.2 meq/L | LDH (72 h, time 3 day): 253.2 IU/L | Na (72 h, time 3 day): 142.6 meq/L | PL (72 h, time 3 day): 150 mg/dL | RALB (72 h, time 3 day): 3.1 g/dL | TBIL (72 h, time 3 day): 0.008 mg/dL | TC (72 h, time 3 day): 74 mg/dL | TG (72 h, time 3 day): 131 mg/dL | TP (72 h, time 3 day): 5.7 g/dL | gamma-GTP (72 h, time 3 day): 1 IU/L | TERMINAL_BW ([…], time 7 day): 248.3 g | TERMINAL_BW ([…], time 14 day): 309.8 g | TERMINAL_BW ([…], time 28 day): 362.5 g | APTT ([…], time 7 day): 22.8 s | Bas ([…], time 7 day): 0% | Eos ([…], time 7 day): 1% | Fbg ([…], time 7 day): 313.2 mg/dL | Hb ([…], time 7 day): 13.6 g/dL | Ht ([…], time 7 day): 39.9% | Lym ([…], time 7 day): 79.4% | MCHC ([…], time 7 day): 34% | MCV ([…], time 7 day): 62.5 fL | Mono ([…], time 7 day): 2.2% | Neu ([…], time 7 day): 16.6% | PT ([…], time 7 day): 16 s | Plat ([…], time 7 day): 115.3 x10_4/uL | RBC ([…], time 7 day): 639.4 x10_4/ul | Ret ([…], time 7 day): 5.3% | WBC ([…], time 7 day): 110.7 x10_2/uL | APTT ([…], time 14 day): 23.1 s | Bas ([…], time 14 day): 0% | Eos ([…], time 14 day): 0.4% | Fbg ([…], time 14 day): 320.2 mg/dL | Hb ([…], time 14 day): 14.9 g/dL | Ht ([…], time 14 day): 42.6% | Lym ([…], time 14 day): 82.8% | MCHC ([…], time 14 day): 35% | MCV ([…], time 14 day): 60.8 fL | Mono ([…], time 14 day): 1.6% | Neu ([…], time 14 day): 13.8% | PT ([…], time 14 day): 16.1 s | Plat ([…], time 14 day): 112 x10_4/uL | RBC ([…], time 14 day): 702.2 x10_4/ul | Ret ([…], time 14 day): 3.7% | WBC ([…], time 14 day): 125.7 x10_2/uL | APTT ([…], time 28 day): 22.8 s | Bas ([…], time 28 day): 0% | Eos ([…], time 28 day): 1% | Fbg ([…], time 28 day): 313.2 mg/dL | Hb ([…], time 28 day): 13.6 g/dL | Ht ([…], time 28 day): 39.9% | Lym ([…], time 28 day): 79.4% | MCHC ([…], time 28 day): 34% | MCV ([…], time 28 day): 62.5 fL | Mono ([…], time 28 day): 2.2% | Neu ([…], time 28 day): 16.6% | PT ([…], time 28 day): 16 s | Plat ([…], time 28 day): 115.3 x10_4/uL | RBC ([…], time 28 day): 639.4 x10_4/ul | Ret ([…], time 28 day): 5.3% | WBC ([…], time 28 day): 110.7 x10_2/uL | KIDNEY_L ([…], time 7 day): 1.1 g | KIDNEY_R ([…], time 7 day): 1.1 g | KIDNEY_TOTAL ([…], time 7 day): 2.1 g | KIDNEY_L ([…], time 14 day): 1.2 g | KIDNEY_R ([…], time 14 day): 1.2 g | KIDNEY_TOTAL ([…], time 14 day): 2.4 g | KIDNEY_L ([…], time 28 day): 1.3 g | KIDNEY_R ([…], time 28 day): 1.3 g | KIDNEY_TOTAL ([…], time 28 day): 2.6 g | LIVER ([…], time 7 day): 12 g | LIVER ([…], time 14 day): 13 g | LIVER ([…], time 28 day): 14.5 g | ALP ([…], time 7 day): 1491.4 IU/L | ALT ([…], time 7 day): 41 IU/L | AST ([…], time 7 day): 70.8 IU/L | BUN ([…], time 7 day): 17 mg/dL | CRE ([…], time 7 day): 0.2 mg/dL | Ca ([…], time 7 day): 10.3 mg/dL | Cl ([…], time 7 day): 106.8 meq/L | DBIL ([…], time 7 day): 0 mg/dL | GLC ([…], time 7 day): 199.8 mg/dL | IP ([…], time 7 day): 7.2 mg/dL | K ([…], time 7 day): 4.2 meq/L | LDH ([…], time 7 day): 213.8 IU/L | Na ([…], time 7 day): 143.6 meq/L | PL ([…], time 7 day): 157.8 mg/dL | RALB ([…], time 7 day): 3 g/dL | TBIL ([…], time 7 day): 0.004 mg/dL | TC ([…], time 7 day): 75 mg/dL | TG ([…], time 7 day): 162.4 mg/dL | TP ([…], time 7 day): 5.7 g/dL | gamma-GTP ([…], time 7 day): 1.6 IU/L | ALP ([…], time 14 day): 1618.8 IU/L | ALT ([…], time 14 day): 41.2 IU/L | AST ([…], time 14 day): 73.8 IU/L | BUN ([…], time 14 day): 18.6 mg/dL | CRE ([…], time 14 day): 0.2 mg/dL | Ca ([…], time 14 day): 10.5 mg/dL | Cl ([…], time 14 day): 107 meq/L | DBIL ([…], time 14 day): 0 mg/dL | GLC ([…], time 14 day): 191.8 mg/dL | IP ([…], time 14 day): 6.1 mg/dL | K ([…], time 14 day): 4.1 meq/L | LDH ([…], time 14 day): 207.4 IU/L | Na ([…], time 14 day): 143.8 meq/L | PL ([…], time 14 day): 145.4 mg/dL | RALB ([…], time 14 day): 3.2 g/dL | TBIL ([…], time 14 day): 0.004 mg/dL | TC ([…], time 14 day): 65.4 mg/dL | TG ([…], time 14 day): 177.2 mg/dL | TP ([…], time 14 day): 6 g/dL | gamma-GTP ([…], time 14 day): 1.6 IU/L | ALP ([…], time 28 day): 1153.2 IU/L | ALT ([…], time 28 day): 39.4 IU/L | AST ([…], time 28 day): 63.6 IU/L | BUN ([…], time 28 day): 18.2 mg/dL | CRE ([…], time 28 day): 0.2 mg/dL | Ca ([…], time 28 day): 10.3 mg/dL | Cl ([…], time 28 day): 108 meq/L | DBIL ([…], time 28 day): 0.002 mg/dL | GLC ([…], time 28 day): 191 mg/dL | IP ([…], time 28 day): 6.4 mg/dL | K ([…], time 28 day): 4 meq/L | LDH ([…], time 28 day): 156 IU/L | Na ([…], time 28 day): 144.4 meq/L | PL ([…], time 28 day): 138.6 mg/dL | RALB ([…], time 28 day): 3.2 g/dL | TBIL ([…], time 28 day): 0.012 mg/dL | TC ([…], time 28 day): 63.2 mg/dL | TG ([…], time 28 day): 130.2 mg/dL | TP ([…], time 28 day): 6.2 g/dL | gamma-GTP ([…], time 28 day): 1.2 IU/L
